Common to all, as to type: in vivo, human
Experiment [1] concerns subjects being treated for either anxiety, sleep, or pain. Briefly: Experimental trial, all 16 subjects combined (anxiety, sleep or pain), mean daily scores. The protocol: (§1) An experimental trial was conducted on 11 subjects who followed a 9-day dosing protocol for CBD oil. The subjects sought treatment for anxiety, pain, or sleep. On a daily basis, the subjects rated the intensity of their symptoms on a 0-10 numeric scale, with 0 being best and 10 being worst intensity. This scale was constructed similar to the standard ‘Numeric Pain Rating Scale’ often used in clinical practice for pain assessment.
(§2) The trial further enrolled five additional subjects. […] Days 1-3 were a maximum of 5 mg CBD; days 4-6 were a maximum of 10 mg CBD; days 7-9 were a maximum of 20 mg CBD.

The next experiment deals with user with pain. Nature of the experiment: Example 1: 9 day dose titration protocol by automated text messages, user treating pain. More on the design: key to pain score: higher = worse pain; 8 = severe, 6 = moderate. The protocol: In this example This is an example of an automated text message exchange with a user for a 9 day (consecutive) dose titration protocol is sufficient to achieve a minimum effective dose. In this example, Twilio was the automated text messaging service that was used. The cannabinoid medication kit is three 15 ml bottles of CBD tincture (i.e. CBD mixed into an ethyl alcohol base): bottle #1, bottle #2, and bottle #3. Bottle #1 contains CBD at a concentration of 100 mg in 5 ml volume (20 mg/ml). Bottle #2 contains CBD at a higher concentration (2×) of 200 mg in 5 ml volume (40 mg/ml). Bottle #3 contains CBD at a further higher concentration (3×) of 300 mg in 5 ml volume (60 mg/ml). Because the three bottles have different dose amounts, to facilitate identifying the correct bottle and avoid mistakes, bottle #1 has a blue-colored label, bottle #2 has a yellow-colored label, and bottle #3 has an orange-colored label. The user inputs the product code or batch number. This ensures that the relevant dosing protocol is associated with the correct cannabinoid product.
On day #1, the user reports a pain score of 8, indicating severe pain. Accordingly, the user is instructed to take the first dose of 6.25 mg from the (blue bottle) twice daily, and continue this dose regimen for the next three days. To facilitate correct adherence to the instructions, the user is shown an image of the blue bottle and the correct liquid level marking on the graduated dropper. On day #2, the user reports a pain score of 6, indicating a reduction in pain symptoms to a moderate level.
On day #4, the user reports a pain score of 5, indicating a reduction in pain symptoms. […] The user is shown an image of the yellow bottle and the correct liquid level marking on the graduated dropper. On day #5, the user reports a pain score of 7, indicating a flare-up of the pain symptoms. The user is asked whether there were any external factors that might have caused this flare-up. […] Thus, the user is asked whether to pause the protocol to allow the user to reassess whether this treatment will be beneficial. Here, the user desires to continue CBD treatment.
Accordingly, the user is given reassurance and instructed to continue at the same dose (i.e. 12.5 mg twice daily).
It is now time for the user to increase the dose amount to stabilize the pain at that level. Accordingly, the user is instructed to switch to the orange bottle (60 mg/ml) and take 18.75 mg twice daily. The user is shown an image of the orange bottle and the correct liquid level marking on the graduated dropper. […] Accordingly, the user is instructed to continue the same dosing regimen (i.e. 18.75 mg twice daily). […] Accordingly, the user has reached the personalized minimum effective dose and is instructed to continue the same dosing regimen (i.e. 18.75 mg twice daily) from hereon. At the end of the protocol, the user also receives a summary report that indicates the minimum effective dose, the lowest pain score achieved, the starting and ending benchmarks, and a graph plotting the daily symptom scores.

In experiment [2] the test system is subjects being treated for anxiety. Nature of the experiment: Experimental trial, 9-day dosing protocol, subjects treated for anxiety. The method, then:
as §1, §2

In experiment [3] the test system is subjects being treated for pain. Nature of the experiment: Experimental trial, 9-day dosing protocol, subjects treated for pain. The protocol: as §1, §2

The record followed here is US20220249397A1, “Automated Dosing Protocol for Use of Cannabinoids or Other Psychoactive Substances” (Function Better Inc., priority 2021, published 2022).

For `C=C(C)[C@@H]1CCC(C)=C[C@H]1c1c(O)cc(CCCCC)cc1O` [CBD, cannabidiol], in experiment [1] (days 1-3 max 5 mg, days 4-6 max 10 mg, days 7-9 max 20 mg CBD, FIG. 7), the “mean scores, initial versus end score” value was “mean scores improved”. The “mean daily scores, trend line” value in experiment [1] (days 1-9, FIG. 8) is “downward trending line”. The pain score with user with pain (day #2, CBD tincture 6.25 mg twice daily, day #1 score 8) is 6; with user with pain (day #3, CBD tincture 6.25 mg twice daily), 6; in the experiment on user with pain (day #4, after 6.25 mg twice daily for three days), 5; in the experiment on user with pain (day #5, 12.5 mg twice daily, flare-up), 7; with user with pain (day #6, 12.5 mg twice daily), 5; in the experiment with user with pain (day #7, after 12.5 mg twice daily), 4. For the same molecule, the pain score came to 4 in the experiment on user with pain (day #8, 18.75 mg twice daily) and 4 in the experiment with user with pain (day #9, 18.75 mg twice daily). Further, the “personalized minimum effective dose” value with user with pain (reached on day #9, pain) stood at 18.75 mg twice daily. In addition, the minimum optimal dose in experiment [2] (Subject #C1_8, anxiety) is reported as 20 mg of CBD/day; in experiment [2] (Subject #C1_10, anxiety), 10 mg of CBD/day; in experiment [3] (Subject #C1_4, pain) it was 10 mg of CBD/day. In addition, the “anxiety score after completion of the protocol” value in experiment [2] (Subject #C1_8, started with score of 5, 0-10 scale) was 1; in experiment [2] (Subject #C1_10, started with score of 7, 0-10 scale) it was 2. The “pain score after completion of the protocol” value in experiment [3] (Subject #C1_4, started with score of 3, 0-10 scale) came out at 0.
